In patent US10434181B2, “Oligomer-containing benzamide-based compounds” (Nektar Therapeutics, priority 2012, dated 2019):
Values joined by “and” are separate entries in the source; they are usually repeats but may differ in a detail not shown here. Equal entries are not always repeated. Where two headings read alike, the source gives them in different places.

Columns and labels:
[1] = Chemical stability in potassium phosphate buffer; format: physicochemical; settings: 100 mM potassium phosphate buffer, pH 7.4 at 37° C. for up to 30 minutes
Experimental: FIG. 5B is a plot of the results of a chemical stability study of test articles in a 100 mM potassium phosphate buffer, pH 7.4 at 37° C. for up to thirty minutes.

dopamine 2L receptors = dopamine 2L receptors (Homo sapiens, UniProt P14416); test: Competition binding assay (dopamine 2L receptors), [3H]methylspiperone; set-up: expressed in transfected cells; settings: for Fold-change Relative to Parent: IC50 relative to metoclopramide, D2L binding
Chain of dopamine 2L receptors (P14416 whole entry): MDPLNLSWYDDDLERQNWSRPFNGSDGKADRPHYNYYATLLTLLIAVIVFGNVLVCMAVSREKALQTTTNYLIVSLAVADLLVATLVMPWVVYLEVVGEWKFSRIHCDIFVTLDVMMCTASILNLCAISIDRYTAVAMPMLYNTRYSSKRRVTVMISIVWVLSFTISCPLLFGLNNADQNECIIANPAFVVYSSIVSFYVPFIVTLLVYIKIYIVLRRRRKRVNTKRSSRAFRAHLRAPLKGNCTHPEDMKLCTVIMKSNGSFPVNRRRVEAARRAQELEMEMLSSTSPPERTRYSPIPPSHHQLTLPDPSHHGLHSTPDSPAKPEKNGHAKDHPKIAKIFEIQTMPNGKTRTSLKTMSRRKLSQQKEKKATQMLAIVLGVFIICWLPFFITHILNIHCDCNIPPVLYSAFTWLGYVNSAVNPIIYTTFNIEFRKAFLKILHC
Experimental: (§1) [^3H] Methylspiperone was diluted in assay buffer to a final concentration of 0.4 nM. To start the assay, 1 uL of compound was added into 96-well v-bottom plates, followed by the addition of 50 uL of diluted membrane preparation, then finally diluted [^3H] Methylspiperone was added. The assay mixture was incubated for 60 minutes at room temperature with shaking. Following incubation, bound [^3H] methylspiperone on 5% PEI soaked GF/B filter plates using a Filtermate Harvester (Perkin Elmer) were then washed four times with ice cold wash buffer (50 mM Tris-HCl, pH 7.5). Filter plates were air dried for two minutes, and then 50 uL of MicroScint-20 was added into each well. Radioactivity counts were quantified using a Top Count plate reader (Perkin Elmer). Data was analyzed using one-site binding competition non-linear regression curve fitting on GraphPad Prism.

dopamine 2S receptor = target: T1, dopamine 2S receptor (Homo sapiens, UniProt P14416); test: β-Arrestin functional assay (dopamine), antagonist mode; format: cell-based; settings: for Fold-change Relative to Parent: IC50 relative to metoclopramide, D2S β-arrestin; for IC50: β-arrestin interaction, CHO-K1 cells expressing D2S, dopamine at EC80 (400 nM)
T1 construct: host or cells: CHO-K1 (PathHunter eXpress β-arrestin cells)
T1 sequence (P14416 1-414 isoform P14416-2): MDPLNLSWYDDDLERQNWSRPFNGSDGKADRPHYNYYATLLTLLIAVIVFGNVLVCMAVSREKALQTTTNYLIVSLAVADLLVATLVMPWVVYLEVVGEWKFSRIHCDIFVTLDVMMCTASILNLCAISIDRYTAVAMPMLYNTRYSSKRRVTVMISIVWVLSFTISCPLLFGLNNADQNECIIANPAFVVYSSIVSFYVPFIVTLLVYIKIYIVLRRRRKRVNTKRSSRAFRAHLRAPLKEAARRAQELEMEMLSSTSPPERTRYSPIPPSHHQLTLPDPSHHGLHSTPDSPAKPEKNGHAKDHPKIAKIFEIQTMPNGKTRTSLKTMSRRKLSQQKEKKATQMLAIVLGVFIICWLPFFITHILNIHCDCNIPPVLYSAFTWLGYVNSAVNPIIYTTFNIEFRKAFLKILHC

[2] = target: T2, 5HT4B receptors (serotonin 4B receptors) (Homo sapiens, UniProt Q13639); test: Competition binding assay (serotonin 4B receptors), [3H]GR113808; settings: for Fold-change Relative to Parent: IC50 relative to metoclopramide, 5HT4B binding; for IC50: [3H]GR113808 competition, HEK 293 membranes expressing 5HT4B
T2 construct: expressed in transfected cells
T2 sequence (Q13639 whole entry): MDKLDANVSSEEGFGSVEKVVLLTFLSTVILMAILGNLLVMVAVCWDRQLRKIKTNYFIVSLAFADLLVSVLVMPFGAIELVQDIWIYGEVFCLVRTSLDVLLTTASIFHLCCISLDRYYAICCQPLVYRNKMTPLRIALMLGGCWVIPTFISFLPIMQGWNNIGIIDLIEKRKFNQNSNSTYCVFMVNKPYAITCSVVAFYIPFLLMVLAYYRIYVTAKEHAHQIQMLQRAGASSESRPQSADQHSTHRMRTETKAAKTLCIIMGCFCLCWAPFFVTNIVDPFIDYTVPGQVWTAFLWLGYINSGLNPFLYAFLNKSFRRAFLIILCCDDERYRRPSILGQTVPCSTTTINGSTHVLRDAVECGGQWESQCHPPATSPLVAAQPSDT

[3] = target: T3, 5HT3A receptors (serotonin 3A receptors) (Homo sapiens, UniProt P46098); test: Competition binding assay (serotonin 3A receptors), [3H]GR65630; settings: for Fold-change Relative to Parent: IC50 relative to metoclopramide, 5HT3A binding; for IC50: [3H]GR65630 competition, HEK 293 membranes expressing 5HT3A, read-out: IC50
T3 construct: expressed in transfected cells
T3 sequence (P46098 24-478): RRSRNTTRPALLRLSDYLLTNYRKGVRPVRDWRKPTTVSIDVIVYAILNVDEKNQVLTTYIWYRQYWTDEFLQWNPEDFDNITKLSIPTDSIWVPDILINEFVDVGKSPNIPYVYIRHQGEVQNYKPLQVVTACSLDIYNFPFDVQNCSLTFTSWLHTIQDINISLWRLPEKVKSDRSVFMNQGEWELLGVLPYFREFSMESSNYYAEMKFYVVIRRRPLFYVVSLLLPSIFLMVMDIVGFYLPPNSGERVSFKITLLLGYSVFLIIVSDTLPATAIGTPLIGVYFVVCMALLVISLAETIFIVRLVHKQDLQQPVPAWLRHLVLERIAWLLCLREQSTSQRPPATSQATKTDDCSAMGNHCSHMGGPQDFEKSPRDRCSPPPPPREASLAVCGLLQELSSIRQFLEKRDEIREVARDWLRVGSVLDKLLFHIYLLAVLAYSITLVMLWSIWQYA
Experimental: as §1, with “Methylspiperone was diluted in assay buffer to a final concentration of 0.4 nM.” left out, “Methylspiperone was added.” left out, “methylspiperone on 5% PEI soaked GF/B filter plates using a Filtermate Harvester (Perkin Elmer) were then washed four times with ice cold wash buffer (50 mM Tris-HCl, pH 7.5).” left out

CYP2D6 [4] = target: T4, CYP2D6 (Homo sapiens, UniProt P10635); test: Metabolic stability in human recombinant CYP2D6 enzyme; format: in vitro ADME; set-up: purchased Xenotech, LLC; settings: 1 μM, 100 pmol/mL CYP2D6, up to 30 min, 37° C.
T4 sequence (P10635 whole entry): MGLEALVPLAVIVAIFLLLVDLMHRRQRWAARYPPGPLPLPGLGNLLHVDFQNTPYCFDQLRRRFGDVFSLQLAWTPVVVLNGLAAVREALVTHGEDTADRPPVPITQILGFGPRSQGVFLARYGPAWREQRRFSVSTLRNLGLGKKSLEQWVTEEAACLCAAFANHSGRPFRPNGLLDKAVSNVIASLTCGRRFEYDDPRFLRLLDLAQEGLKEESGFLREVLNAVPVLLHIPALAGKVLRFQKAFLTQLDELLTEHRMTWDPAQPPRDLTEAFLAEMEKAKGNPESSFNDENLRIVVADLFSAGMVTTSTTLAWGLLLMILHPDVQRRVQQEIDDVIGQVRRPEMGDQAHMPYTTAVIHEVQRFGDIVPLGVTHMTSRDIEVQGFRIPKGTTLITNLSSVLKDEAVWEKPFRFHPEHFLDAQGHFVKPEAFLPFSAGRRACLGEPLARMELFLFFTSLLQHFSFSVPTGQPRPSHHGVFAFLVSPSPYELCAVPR

in vivo = settings: male, Sprague Dawley, rat, plasma; for AUC(0-inf) / MRT inf / Vd / clearance / half-life: iv, 0.5 mg/kg
Experimental: (§4) Rat pharmacokinetic (“PK”) characterization was conducted in male Sprague Dawley Rats (Rattus Norvegicus) weighing between 210-260 gm (Charles River Laboratories (Hollister, Calif.)). Rats were fed a standard diet and water was available ad-libidum at all times. […] Animals were dosed either orally (2.5 mg/Kg) via gavage or intravenously (0.5 mg/kg) via the jugular vein cannula. Blood samples (˜0.15 mL) were collected through carotid artery cannula at respective time points and transferred immediately into K2EDTA-coated tubes (that contain quenching media-acetic acid, PMSF and Dichlorvos) and placed on ice. The samples were centrifuged within thirty minutes after collection at 10,000 RPM for five minutes and the resulting plasma was separated. Plasma were transferred into microfuge tubes and placed on dry ice immediately. The plasma samples were stored at approximately −70° C. until shipped on dry ice for Bioanalysis by LC/MS/MS. Urine samples were collected using metabolic cages into a tube containing citric acid (4 mg for 0-4 and 4-8 hr interval and 16 mg for 8-24 hr interval) on wet ice at the intervals specified in the study design. After the completion of urine collection at each interval, each cage was rinsed with 2 mL of deionized water (1 mL each time). The rinse was collected in the separate labeled container (containing 2 mg of citric acid) as the urine. Following this rinse another 2 ml rinse was carried out with ethanol (1 ml each time). The rinse was also collected in the separate labeled container as the urine. Samples were stored frozen at −70° C. until bioanalysis by LC/MS/MS was performed.
(§5) Pharmacokinetic parameters were determined by non-compartmental analysis using Phoenix®WinNonlin® (Version 6.3; Pharsight Corp., Mountain View, Calif.). Nominal doses and sampling times were used for the analysis. Concentrations reported as BLQ were treated as missing unless they were pre-dose; then they were set to zero. Maximum plasma concentration (Cmax) and time of observed maximum plasma analyte concentration (Tmax) were generated by Phoenix®WinNonlin®, directly from the inputed dataset. […] Area under the plasma concentration-time curve from time 0 to infinity (AUCinf) was calculated as the sum of AUClast and the last observed concentration divided by k. Total plasma clearance (CL) was calculated as Dose/AUCinf. Apparent volume of distribution at steady state (Vss) was calculated as MRTinf*CL, where MRT is the mean residence time.

[5] = system: Sprague-Dawley rat hepatocytes; test: MetID determination in rat hepatocytes; format: in vitro ADME; settings: for major metabolic pathway: rat hepatocytes
Experimental: (§2) Cryopreserved human and Sprague-Dawley rat hepatocytes were thawed in a 37° C. water bath. […] Samples were obtained from separate plates for each time point during the incubation. At each sampling time, the plates were removed from the incubator, quenched by adding 100 μL cold acetonitrile, and placed in an ice bath until centrifugation at 4,000 rpm for 30 minutes at 4° C. Supernatants were stored at or below −70° C. until LC-MS/MS analysis could be conducted. The liquid chromatography system used was Agilent 1100 Autosampler, Binary Pump, DAD and Column Enclosure. Tandem mass spectrometry was conducted using a Thermo DECA XP MAX Ion Trap Mass Spectrometer. The ion source was Electrospray (+) and the LC column used was a Varian, Polaris 5 C18-A (250×2.1 mm, 5 micron) column.
(§3) Metabolic pathways of metoclopramide and conjugates were determined in rat and human hepatocytes. N-dealkylation was the major metabolic pathway for metoclopramide in rats, and metabolism in human hepatocytes was minimal. […] FIG. 2 and FIG. 3 show the metabolic pathway of for mPEG1-N-metoclopramide and mPEG4-N-metoclopramide, respectively. […] In this figure, different metabolites for each conjugate are denoted with the “M” and correspond to the designation provided in the figure for a given conjugate. For example, metabolite M1 for mPEG1-N-metoclopramide in Table 6 corresponds to M1 in FIG. 2, metabolite M2 for mPEG4-N-metoclopramide in Table 6 corresponds to M2 in FIG. 3 and metabolite M3 mPEG8-N-metoclopramide in Table 6 corresponds to M3 in FIG. 4.

[6] = target: serotonin 4 receptor (5HT4) (Homo sapiens, UniProt Q13639); test: cAMP accumulation assay (serotonin 4 receptors); format: cell-based; settings: for Fold-change Relative to Parent: IC50 relative to metoclopramide, 5HT4 cAMP; for IC50: cAMP accumulation, CHO-K1 cells stably expressing 5HT4
Chain of serotonin 4 receptor (5HT4) (Q13639 whole entry, species assumed): as the sequence (Q13639 whole entry) above

human hepatocytes = test: MetID determination in human hepatocytes; format: in vitro ADME
Experimental: as §2, §3

[7] = Rat PK (intravenous and oral); settings: for CLRen: intravenous, 0.5 mg/kg; for Clast / Tlast: oral gavage, 2.5 mg/Kg
Experimental: as §4, §5

CYP2D6 [8] = target: T4, CYP2D6; settings: cited from earlier work
[9] = [3H]methylspiperone competition, HEK 293 membranes expressing D2L, read-out: IC50
[10] = preliminary run that was not quality controlled, read-out: IC50, preliminary run
[11] = incubation of 10 μM mPEG4-N-metoclopramide, parent and its metabolites M (FIG. 3)
[12] = incubation of 10 μM mPEG1-N-metoclopramide, parent and its metabolites M (FIG. 2)
[13] = incubation of 10 μM mPEG8-N-metoclopramide, parent and its metabolites M (FIG. 4)

Row | chemical stability [1] | Fold-change Relative to Parent (dopamine 2L receptors) | IC50 (dopamine 2L receptors; [9]) [µM] | Fold-change Relative to Parent (dopamine 2S receptor) | IC50 (dopamine 2S receptor) | Fold-change Relative to Parent [2] | IC50 [2] [µM] | Fold-change Relative to Parent [3] | IC50 [3] [µM] | metabolism by human recombinant CYP2D6 enzyme (CYP2D6 [4]) | AUC(0-inf) (in vivo) [ng·h/mL] | MRT inf (in vivo) [min] | Vd (in vivo) [L/kg] | clearance (in vivo) [mL/min/kg] | half-life (in vivo) [min] | major metabolic pathway [5] | extent of metabolism in human hepatocytes (human hepatocytes) | CLRen [7] [mL/min/kg] | SMILES | further results
1 | chemically stable | 98.5 | 8.29 | 44.1 | 3.62 µM | 3.8 | 58.1 | 156 | 1070 | to a lesser degree than metoclopramide | – | – | – | – | – | – | – | – | CCN(CCNC(=O)c1cc(Cl)c(N)cc1OC)CCOCCOCCOCCOCCOC [mPEG5-N-Metoclopramide] | IC50 (dopamine 2L receptors; [10]): 15.1 µM
2 | – | 16.1 | 1.36 | 9.57 | 0.786 µM | 2.0 | 29.7 | – | – | – | – | – | – | – | – | – | – | – | CCN(CCNC(=O)c1cc(Cl)c(N)cc1OC)CCOCCOC [mPEG2-N-Metoclopramide] | –
3 | chemically stable | 41 | 3.45 | 25 | 2.05 µM and 2.06 µM | 2.1 | 31.8 | 23 | 160 | to a lesser degree than metoclopramide | – | – | – | – | – | – | – | – | CCN(CCNC(=O)c1cc(Cl)c(N)cc1OC)CCOCCOCCOC [mPEG3-N-Metoclopramide] | IC50 (dopamine 2L receptors; [10]): 4.65 µM and 13.1 µM
4 | – | 38.7 | 3.26 | 37.03 | 3.04 µM | 2.0 | 30.7 | – | – | – | 63.5 | 33.6 | 7.17 | 133 | 39 | N-dealkylation | low metabolism | 9.0 | CCN(CCNC(=O)c1cc(Cl)c(N)cc1OC)CCOCCOCCOCCOC [mPEG4-N-Metoclopramide] | AUC (in vivo; po, 2.5 mg/kg): 41.4 ng·h/mL; Cmax (in vivo; po, 2.5 mg/kg): 16.6 ng/mL; Tmax (in vivo; po, 2.5 mg/kg): 120 min; bioavailability (in vivo; po, 2.5 mg/kg): 14.5%; % of Total Metabolism, Rat Hep 1 hr [5, 11]: 61.5%; % of Total Metabolism, Rat Hep 4 hr [5, 11]: 16.1%; Fold-change Relative to Parent [6]: 0.62; IC50 [6]: 0.644 µM and 0.64 µM; % of Total Metabolism, Human Hep 1 hr (human hepatocytes; [11]): 100%; % of Total Metabolism, Human Hep 4 hr (human hepatocytes; [11]): 93.7%; Clast [7]: 3 ng/mL; Tlast [7]: 5 h
5 | – | 2.8 | 0.233 | 4.19 | 0.345 µM | 1.3 | 19.7 | – | – | – | 88.3 | 27.6 | 2.84 | 101 | 39 | N-dealkylation | low metabolism | 4.4 | CCN(CCNC(=O)c1cc(Cl)c(N)cc1OC)CCOC [mPEG1-N-Metoclopramide] | AUC (in vivo; po, 2.5 mg/kg): 24.2 ng·h/mL; CL/F (in vivo; po, 2.5 mg/kg): 1550 mL/min/kg; Cmax (in vivo; po, 2.5 mg/kg): 33.2 ng/mL; Tmax (in vivo; po, 2.5 mg/kg): 4.8 min; bioavailability (in vivo; po, 2.5 mg/kg): 6.25%; % of Total Metabolism, Rat Hep 1 hr [5, 12]: 32.7%; % of Total Metabolism, Rat Hep 4 hr [5, 12]: <1.0%; Fold-change Relative to Parent [6]: 1.5; IC50 [6]: 1.59 µM; % of Total Metabolism, Human Hep 1 hr (human hepatocytes; [12]): 86.5%; % of Total Metabolism, Human Hep 4 hr (human hepatocytes; [12]): 90.2%; Clast [7]: 4.39 ng/mL; Tlast [7]: 2.5 h

The remaining lines, values behind:

Row | SMILES | chemical stability [1] | Fold-change Relative to Parent (dopamine 2L receptors) | IC50 (dopamine 2L receptors; [9]) [µM] | Fold-change Relative to Parent (dopamine 2S receptor) | IC50 (dopamine 2S receptor) | Fold-change Relative to Parent [2] | IC50 [2] [µM] | Fold-change Relative to Parent [3] | IC50 [3] [µM] | metabolism by human recombinant CYP2D6 enzyme (CYP2D6 [4]) | AUC(0-inf) (in vivo) [ng·h/mL] | MRT inf (in vivo) [min] | Vd (in vivo) [L/kg] | clearance (in vivo) [mL/min/kg] | half-life (in vivo) [min] | major metabolic pathway [5] | extent of metabolism in human hepatocytes (human hepatocytes) | CLRen [7] [mL/min/kg] | further results
6 | CCN(CCNC(=O)c1cc(Cl)c(N)cc1OC)CCOCCOCCOCCOCCOCCOC [mPEG6-N-Metoclopramide] | chemically stable | 92.1 | 7.75 | 52.05 | 4.27 µM and 4.28 µM | 3.8 | 57.8 | 129 | 885 | to a lesser degree than metoclopramide | – | – | – | – | – | – | – | – | –
7 | Fc1ccc([C@@H]2CCNC[C@H]2COc2ccc3c(c2)OCO3)cc1 [paroxetine] | – | – | – | – | – | – | – | – | – | – | – | – | – | – | – | – | – | – | time-dependent inhibition of CYP2D6 (literature / known) (CYP2D6 [8]): time-dependent inhibitor of CYP2D6
8 | CCN(CCNC(=O)c1cc(Cl)c(N)cc1OC)CCOCCOCCOCCOCCOCCOCCOCCOCCOC [mPEG9-N-Metoclopramide] | – | 131.9 | 11.1 | 87.86 | 7.22 µM | 13.3 | 202 | – | – | – | – | – | – | – | – | – | – | – | Fold-change Relative to Parent (dopamine 2S receptor; listed as mPEG9-N-metoclopramide): 87.6
9 | CCN(CCNC(=O)c1cc(Cl)c(N)cc1OC)CCOCCOCCOCCOCCOCCOCCOCCOC [mPEG8-N-Metoclopramide] | – | 80.7 | 6.79 | 67.4 | 5.53 µM and 5.54 µM | 11.9 | 181 | – | – | – | 98.3 | 146 | 17.8 | 84.4 | 145 | PEG chain modification | only minor metabolism | 0.54 | N-dealkylation compared with metoclopramide ([5]; hepatocytes): less compared with metoclopromide; % of Total Metabolism, Rat Hep 1 hr [5, 13]: 83%; % of Total Metabolism, Rat Hep 4 hr [5, 13]: 43.5%; % of Total Metabolism, Human Hep 1 hr (human hepatocytes; [13]): 100%; % of Total Metabolism, Human Hep 4 hr (human hepatocytes; [13]): 94.8%
10 | CCN(CCNC(=O)c1cc(Cl)c(N)cc1OC)CCOCCOCCOCCOCCOCCOCCOC [mPEG7-N-Metoclopramide] | – | 137.3 | 11.6 | 99.57 | 8.18 µM | 8.8 | 133 | – | – | – | – | – | – | – | – | – | – | – | –
